The supplement of paper PMC10307832

How the values were obtained:
Experiment in all cases: relative viability (nuclei count vs DMSO), 5 days (fraction); higher = more cells survive
[1] = system: NCI-H1792
Procedure, shortened: (§1)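 Relative viability equals treated-well nuclei counts divided by vehicle-well nuclei counts. Counts came from 4× images of lung cancer cell lines grown in 1536-well plates for 5 days after pin-tool dosing on the day after seeding. Dosing used one drug alone or a fixed anchor-drug dose plus five library-drug doses (not always all listed) in √10 steps, and values are medians of duplicate plates.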

[2] = system: SK-MES-1
Procedure, shortened: as §1

[3] = system: NCI-H2170
Procedure, shortened: as §1

[4] = system: NCI-H727
Procedure, shortened: as §1

[5] = system: EMC-BAC-2
Procedure, shortened: as §1

[6] = system: NCI-H2228
Procedure, shortened: as §1

[7] = system: PC-3 [JPC-3]
Procedure, shortened: as §1

[8] = system: NCI-H2009
Procedure, shortened: as §1

[9] = system: LK-2
Procedure, shortened: as §1

[10] = system: NCI-H1944
Procedure, shortened: as §1

[11] = system: NCI-H322M
Procedure, shortened: as §1

[12] = system: HARA
Procedure, shortened: as §1

[13] = system: NCI-H1993
Procedure, shortened: as §1

[14] = system: NCI-H596
Procedure, shortened: as §1

[15] = system: HOP-62
Procedure, shortened: as §1

[16] = system: NCI-H3122
Procedure, shortened: as §1

[17] = system: A-427
Procedure, shortened: as §1

[18] = system: ABC-1
Procedure, shortened: as §1

[19] = system: SW 1573
Procedure, shortened: as §1

[20] = system: LXF-289
Procedure, shortened: as §1

O=c1cc(-c2cccc3c2Sc2ccccc2S3)oc(N2CCOCC2)c1 + CS(=O)(=O)CCNCc1ccc(-c2ccc3ncnc(Nc4ccc(OCc5cccc(F)c5)c(Cl)c4)c3c2)o1 [Lapatinib] (partner 2 µM)
relative viability ([1]; first compound 0.253 µM): 1
relative viability ([1]; first compound 0.8 µM): 0.824
relative viability ([1]; first compound 2.53 µM): 0.83
relative viability ([1]; first compound 8 µM): 1.58
relative viability ([2]; first compound 0.08 µM): 0.487
relative viability ([2]; first compound 0.253 µM): 0.562
relative viability ([2]; first compound 0.8 µM): 0.445
relative viability ([2]; first compound 2.53 µM): 0.483
relative viability ([2]; first compound 8 µM): 0.439
relative viability ([3]; first compound 0.08 µM): 0.258
relative viability ([3]; first compound 0.253 µM): 0.284
relative viability ([3]; first compound 0.8 µM): 0.239
relative viability ([3]; first compound 2.53 µM): 0.271
relative viability ([3]; first compound 8 µM): 0.308
relative viability ([4]; first compound 0.253 µM): 1.17
relative viability ([4]; first compound 2.53 µM): 0.802
relative viability ([4]; first compound 8 µM): 1.16
relative viability ([5]; first compound 0.08 µM): 0.873
relative viability ([5]; first compound 0.253 µM): 0.987
relative viability ([5]; first compound 0.8 µM): 0.887
relative viability ([5]; first compound 2.53 µM): 0.865
relative viability ([5]; first compound 8 µM): 0.929
relative viability ([6]; first compound 0.08 µM): 1.02
relative viability ([6]; first compound 0.253 µM): 1.5
relative viability ([6]; first compound 0.8 µM): 0.912
relative viability ([6]; first compound 2.53 µM): 0.891
relative viability ([6]; first compound 8 µM): 1.1
relative viability ([7]; first compound 0.08 µM): 0.44
relative viability ([7]; first compound 0.253 µM): 0.497
relative viability ([7]; first compound 0.8 µM): 0.435
relative viability ([7]; first compound 2.53 µM): 0.437
relative viability ([7]; first compound 8 µM): 0.532
relative viability ([8]; first compound 0.08 µM): 0.879
relative viability ([8]; first compound 0.253 µM): 0.893
relative viability ([8]; first compound 0.8 µM): 0.876
relative viability ([8]; first compound 2.53 µM): 0.895
relative viability ([8]; first compound 8 µM): 0.823
relative viability ([9]; first compound 0.08 µM): 0.86
relative viability ([9]; first compound 0.253 µM): 1
relative viability ([9]; first compound 0.8 µM): 0.997
relative viability ([9]; first compound 2.53 µM): 0.918
relative viability ([9]; first compound 8 µM): 1.21
relative viability ([10]; first compound 0.08 µM): 0.846
relative viability ([10]; first compound 0.253 µM): 1.07
relative viability ([10]; first compound 0.8 µM): 0.733
relative viability ([10]; first compound 8 µM): 0.998
relative viability ([11]; first compound 0.08 µM): 0.64
relative viability ([11]; first compound 0.253 µM): 0.768
relative viability ([11]; first compound 0.8 µM): 0.529
relative viability ([11]; first compound 2.53 µM): 0.564
relative viability ([11]; first compound 8 µM): 0.607
relative viability ([12]; first compound 0.08 µM): 0.662
relative viability ([12]; first compound 0.253 µM): 0.751
relative viability ([12]; first compound 0.8 µM): 0.562
relative viability ([12]; first compound 2.53 µM): 0.632
relative viability ([12]; first compound 8 µM): 0.719
relative viability ([13]; first compound 0.08 µM): 0.773
relative viability ([13]; first compound 0.253 µM): 0.802
relative viability ([13]; first compound 0.8 µM): 0.849
relative viability ([13]; first compound 2.53 µM): 0.875
relative viability ([13]; first compound 8 µM): 0.844
relative viability ([14]; first compound 0.08 µM): 1.06
relative viability ([14]; first compound 0.253 µM): 1.06
relative viability ([14]; first compound 0.8 µM): 0.95
relative viability ([14]; first compound 2.53 µM): 0.894
relative viability ([14]; first compound 8 µM): 1.22
relative viability ([15]; first compound 0.08 µM): 0.829
relative viability ([15]; first compound 0.253 µM): 1.08
relative viability ([15]; first compound 0.8 µM): 1.13
relative viability ([15]; first compound 2.53 µM): 0.727
relative viability ([15]; first compound 8 µM): 1.07
relative viability ([16]; first compound 0.08 µM): 1.03
relative viability ([16]; first compound 0.253 µM): 1.15
relative viability ([16]; first compound 0.8 µM): 1
relative viability ([16]; first compound 2.53 µM): 0.96
relative viability ([16]; first compound 8 µM): 1.02
relative viability ([17]; first compound 0.08 µM): 1.06
relative viability ([17]; first compound 0.253 µM): 1.05
relative viability ([17]; first compound 0.8 µM): 1.08
relative viability ([17]; first compound 2.53 µM): 0.868
relative viability ([17]; first compound 8 µM): 1.12
relative viability ([18]; first compound 0.08 µM): 1.04
relative viability ([18]; first compound 0.253 µM): 1.2
relative viability ([18]; first compound 0.8 µM): 1.28
relative viability ([18]; first compound 2.53 µM): 0.991
relative viability ([18]; first compound 8 µM): 1.41
relative viability ([19]; first compound 0.08 µM): 1.02
relative viability ([19]; first compound 0.253 µM): 1.28
relative viability ([19]; first compound 0.8 µM): 0.935
relative viability ([19]; first compound 2.53 µM): 1.05
relative viability ([19]; first compound 8 µM): 1.24
relative viability ([20]; first compound 0.08 µM): 0.87
relative viability ([20]; first compound 0.253 µM): 0.935
relative viability ([20]; first compound 0.8 µM): 0.942
relative viability ([20]; first compound 2.53 µM): 0.856
relative viability ([20]; first compound 8 µM): 0.93
